Values joined by “and” are separate entries in the source; they are usually repeats but may differ in a detail not shown here. Equal entries are not always repeated.
What was measured:
rat = test: animal or person; type: in vivo
[1] = tested on: male albino rats (Sprague Dawley); details: rat, in vivo, ip

CC(C)Cc1ccc(C(C)C(=O)O)cc1 (stereo not drawn) [ibuprofen]
ED50 (rat; Rattus norvegicus, ip, 0.5 h, read-out: ED50 (95% CI)): 139 mg/kg
timepoint of peak effect (rat; rat, in vivo): 30 min p. appl.
ED25 (95% CI) [1]: 117 mg/kg and 117 (90.1-196) mg/kg
